Test results published in EP0392976A1, “Monoclonal antibodies to tetracyclic compounds, processes for their production, and applications” (CIBA-GEIGY AG, priority 1989, dated 1990).
pIC50: −log10 of the molar value. Counter-ions that a name gives are not always drawn. Like-named read-outs stand apart in the source and are kept apart here.

Columns and labels:
Experiment in all cases: inhibition enzyme immunoassay: inhibition of MAb binding to surface bound R-(-)-oxaprotiline-mucin conjugate
Parameters in all cases: species or system mouse
MAb 1219S59.11 = conditions: for pIC50: read-out: IC₅₀
Experimental: (§1) The affinities of the monoclonal antibodies of the invention to R-(-)-oxaprotiline can for example be determined in an inhibition enzyme immunoassay according to Friguet et al. (J. Immunol. Methods 77, 305, 1985) wherein the monoclonal antibody to be tested is preincubated with R-(-)-oxaprotiline and, in a second step, exposed to a solid phase coated with an adsorbable conjugate of R-(-)-oxaprotiline, e.g. a protein conjugate. The fraction of the monoclonal antibody not engaged in immunocomplexes binds to the solid phase and is quantified by a secondary antibody-enzyme conjugate directed against the monoclonal antibody. The affinities are expressed as IC₅₀ (inhibition concentration) values, i.e. the concentration of free antigen causing a 50 % inhibition of antibody binding to the solid phase antigen.
(§2) This can be done, for example, in an inhibition enzyme immunoassay wherein the monoclonal antibodies of the invention are preincubated with any of the soluble compounds listed above and the incubation mixture is then tested in the enzyme immunoassay described above.
(§3) The conjugate solution (0.66 mg/ml) is diluted 1000-fold in coating buffer pH 9.8 (477 mg sodium carbonate, 897 mg sodium hydrogen carbonate, 60 mg sodium azide, 300 ml distilled water) and incubated in the wells of a microtitre plate for 2 days at 4°C. The wells are washed three times with PBS containing Tween 20 (Sigma, 0.1 %). Residual adsorption sites on the plate are saturated by incubation with 100 µl of PBS/Tween 20 for 1 h. 100 µl of a solution to be tested for the presence of antibodies to R-(-)-oxaprotiline are incubated in the wells for 1 h at room temperature. After washing three times with PBS/Tween 20, an alkaline phosphatase conjugated anti-mouse IgG antiserum (Sigma) is added in a 1000-fold dilution for 1 h at 37°C. The microtitre plate is washed five times with PBS/Tween 20, and the enzyme-conjugated bound antiserum developed with an alkaline phosphatase substrate consisting of disodium p-nitrophenylphosphate (1 mg/ml; Sigma) in diethanolamine buffer pH 9.8. The substrate gives a yellow coloration which is measured with a colorimeter (Titertek Multiskan) at a wave length of 405 nm after 60 min.
(§4) The assay is carried out as described in the following.
(§5) The capacity of free R-(-)-oxaprotiline and of a number of compounds which are structurally analogous to R-(-)-oxaprotiline to inhibit the binding of the monoclonal antibodies of the invention to the antigen is determined in an inhibition enzyme immunoassay essentially as described in example 3.2. The MAbs are preincubated with free R-(-)-oxaprotiline and with various structural analogues, respectively, instead of with the test compounds of example 3.2.

MAb 1219S78.6 = conditions: for pIC50: read-out: IC₅₀
Experimental: as §1, §2, §3, §4, §5

MAb 1225S93.2 = conditions: for pIC50: read-out: IC₅₀
Experimental: as §1, §2, §3, §4, §5

MAb 1228P63.1 = conditions: for pIC50: read-out: IC₅₀
Experimental: as §1, §2, §3, §4, §5

MAb 1226S31.3 = system: MAb 1226S31.3
Experimental: as §1, §2, §3
The capacity of a number of therapeutic drugs some of which are used in combination with antidepressants and of biogenic amines to inhibit the binding of the monoclonal antibodies of the invention to the antigen is determined in a two-step inhibition enzyme immunoassay to establish the selectivity of the monoclonal antibodies to the tested compounds.
as §4, §5

[1] = Mab 1226S31.3, therapeutic drugs and biogenic amines, 1 µM-150 pM, preincubated overnight, read-out: IC50
[2] = MAb 1219S59.11, derived from IC50, compound 1 = 1
[3] = MAb 1225S93.2, derived from IC50, compound 1 = 1
[4] = MAb 1228P63.1, derived from IC50, compound 1 = 1

pIC50 (MAb 1226S31.3; [1])	rel. affinity (MAb 1219S59.11; [2])	SMILES	rel. affinity (MAb 1219S59.11)	pIC50 (MAb 1219S59.11; MAb 1219S59.11)	IC50 relative to reference compound (fold) (MAb 1219S78.6)	pIC50 (MAb 1219S78.6; MAb 1219S78.6)	rel. affinity (MAb 1225S93.2)	pIC50 (MAb 1225S93.2; MAb 1225S93.2)	rel. affinity (MAb 1228P63.1)	pIC50 (MAb 1228P63.1; MAb 1228P63.1)	rel. affinity (MAb 1226S31.3)	pIC50 (MAb 1226S31.3; MAb 1226S31.3, read-out: IC₅₀)	IC50 relative to reference compound (higher = weaker binding) (MAb 1219S59.11; [2])	IC50 relative to reference compound (fold) (MAb 1219S78.6; MAb 1219S78.6, derived from IC50, compound 1 = 1)	rel. affinity (MAb 1225S93.2; [3])	rel. affinity (MAb 1228P63.1; [4])	rel. affinity (MAb 1226S31.3; MAb 1226S31.3, derived from IC50, compound 1 = 1)
–	–	CNCC(O)CC12CCC(c3ccccc31)c1ccccc12 (racemic) [compound 3, 1-(2-hydroxy-3-methyl-amino-propyl)-dibenzo-[b,e]bicyclo[2.2.2]-octadiene-hydro-chloride]	2.6	9.12	1.7	9.29	1.3	9.32	2.3	8.77	0.5	8.51	–	–	–	–	–
< 6.00	–	CNCC(O)c1ccc(O)c(O)c1 (stereo not shown) [Epinephrin, 4-[1-hydroxy-2-(methyl-amino)-ethyl]-1,2-benzene-diol]	–	–	–	–	–	–	–	–	–	–	–	–	–	–	–
< 6.00	–	NCCc1c[nH]cn1 [Histamine, 1H-imidazole-4-ethane-amine]	–	–	–	–	–	–	–	–	–	–	–	–	–	–	–
< 6.00	–	NCC(O)c1ccc(O)c(O)c1 [L-Norepinephrin, 4-[2-amino-1-hydroxy-ethyl]-1,2-benzenediol]	–	–	–	–	–	–	–	–	–	–	–	–	–	–	–
–	–	CNC[C@@H](O)CC12CCC(c3ccccc31)c1ccccc12 [compound 2, S-(+)-1-(2-hydroxy-3-methylamino-propyl)-dibenzo[b,e]bicyclo-[2.2.2]octadiene-hydrochloride]	462.0	6.87	126.2	7.41	2.3	9.07	6.5	8.31	∼0.6	~8.40	–	–	–	–	–
–	–	CNC[C@@H](CC12CCC(c3ccccc31)c1ccccc12)O[C@@H]1O[C@H](C(=O)O)[C@@H](O)[C@H](O)[C@H]1O [compound 4, R-(-)-1-(2-glucuronyl-3-methylamino-propyl)-dibenzo[b,e]bicyclo-[2.2.2]octadiene]	244.8	7.15	229.5	7.15	245.9	7.04	68.0	7.29	4.1	7.56	–	–	–	–	–
–	–	CNC[C@H](CC12CCC(c3ccccc31)c1ccccc12)O[C@@H]1O[C@H](C(=O)O)[C@@H](O)[C@H](O)[C@H]1O [compound 5, S-(+)-1-(2-glucuronyl-3-methylamino-propyl)-dibenzo[b,e]bicyclo-[2.2.2]octadiene]	>3448	< 6.00	>3279	< 6.00	429.7	6.80	562.7	6.37	52.7	6.45	–	–	–	–	–
–	8.8	CNCCCC12CCC(c3ccccc31)c1ccccc12 [compound 6, 1-(3-methylamino-propyl)-dibenzo[b,e]-bicyclo[2.2.2]-octadiene-hydro-chloride]	–	–	–	–	–	–	–	–	–	–	–	–	1.2	1.4	–
–	–	NCC(O)CC12CCC(c3ccccc31)c1ccccc12 (stereo not shown) [compound 7, 1-(3-amino-2-hydroxy-propyl)-dibenzo[b,e]-bicyclo[2.2.2]-octadiene-hydro-chloride]	368.9	6.97	249.2	7.12	2.0	9.12	2.2	8.78	0.4	8.62	–	–	–	–	–
–	–	CNCC(CC12CCC(c3ccccc31)c1ccccc12)OC(C)=O (stereo not shown) [compound 11, 1-(2-acetoxy-3-methyl-amino-propyl)-dibenzo[b,e]bicyclo-[2.2.2]octadiene-hydrochloride-semi-hydrate]	4.5	8.89	3.3	9.00	1.9	9.15	4.5	8.47	0.5	8.45	–	–	–	–	–
–	–	c1ccc2c(c1)C1CCC2(CC2CNCCO2)c2ccccc21 (stereo not shown) [compound 12, 2-(dibenzo[b,e]bicyclo-[2.2.2]octadienyl-1-methyl)-morpholine-hydrochloride]	174.1	7.30	∼49.2	~7.82	6.4	8.63	3.1	8.63	0.3	8.68	–	–	–	–	–
–	–	CN1COC(CC23CCC(c4ccccc42)c2ccccc23)C1 (stereo not shown) [compound 13, 3-methyl-5-(dibenzo-[b,e]bicyclo[2.2.2]-octadienyl-1-methyl)-oxazolidine-methane-sulfonate]	1.9	9.26	1.6	9.32	1.6	9.24	1.6	8.92	0.7	8.35	–	–	–	–	–
–	–	CN(C)CC(O)CC12CCC(c3ccccc31)c1ccc(Cl)cc12 (stereo not shown) [compound 15, 1-(2-hydroxy-3-dimethylamino-propyl]-10-chlorodibenzo[b,e]-bicyclo[2.2.2]-octadiene-cyclamate]	124.1	7.44	170.5	7.28	74.3	7.56	16.7	7.90	7.5	7.30	–	–	–	–	–
–	–	CNCC(O)CC12CCC(c3ccccc31)c1ccc(C(F)(F)F)cc12 (stereo not shown) [compound 16]	>3448	< 6.00	>3279	< 6.00	251.4	7.03	>1667	< 5.90	>149	< 6.00	–	–	–	–	–
–	–	CN(C)CC(O)CC12CCC(c3ccccc31)c1ccc(C(F)(F)F)cc12 (stereo not shown) [compound 17]	>3448	< 6.00	>3279	< 6.00	628.4	6.63	>1667	< 5.90	>149	< 6.00	–	–	–	–	–

SMILES	pIC50 (MAb 1226S31.3; [1])	rel. affinity (MAb 1219S59.11; [2])	rel. affinity (MAb 1219S59.11)	pIC50 (MAb 1219S59.11; MAb 1219S59.11)	IC50 relative to reference compound (fold) (MAb 1219S78.6)	pIC50 (MAb 1219S78.6; MAb 1219S78.6)	rel. affinity (MAb 1225S93.2)	pIC50 (MAb 1225S93.2; MAb 1225S93.2)	rel. affinity (MAb 1228P63.1)	pIC50 (MAb 1228P63.1; MAb 1228P63.1)	rel. affinity (MAb 1226S31.3)	pIC50 (MAb 1226S31.3; MAb 1226S31.3, read-out: IC₅₀)	IC50 relative to reference compound (higher = weaker binding) (MAb 1219S59.11; [2])	IC50 relative to reference compound (fold) (MAb 1219S78.6; MAb 1219S78.6, derived from IC50, compound 1 = 1)	rel. affinity (MAb 1225S93.2; [3])	rel. affinity (MAb 1228P63.1; [4])	rel. affinity (MAb 1226S31.3; MAb 1226S31.3, derived from IC50, compound 1 = 1)
CNC[C@H](O)CC12CCC(c3ccccc31)c1ccccc12 [compound 1]	8.17	–	–	9.54	–	9.52	–	9.43	–	9.12	–	8.17	1	1	1	1	1
